PubChem BioAssay (NCI)
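Interpolation was linear, between the two tested concentrations surrounding the appropriate level; five concentrations were tested over 48 hours in 96-well plates. GI50 is the concentration that inhibits growth by half. Definition used: TGI = concentration required for complete inhibition of growth.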

Tests used:
Test in all cases: NCI anticancer screen, dose series, 48 h
[1] = system: SN12C renal
[2] = system: NCI-H226 lung
[3] = system: K-562 leukemia
[4] = system: SK-MEL-5 melanoma
[5] = system: CAKI-1 renal
[6] = system: SF-268 CNS
[7] = system: RPMI-8226 leukemia
[8] = system: MCF7 breast
[9] = system: UACC-257 melanoma
[10] = system: ACHN renal
[11] = system: SR leukemia

| SMILES | TGI [1] [µM] | TGI [2] [µM] | TGI [3] [µM] | TGI [4] [µM] | TGI [5] [µM] | TGI [6] [µM] | TGI [7] [µM] | TGI [8] [µM] | TGI [9] [µM] | TGI [10] [µM] | TGI [11] [µM] | GI50 [1] [µM] | GI50 [10] [µM] | GI50 [5] [µM] | GI50 [6] [µM] | GI50 [8] [µM] | GI50 [9] [µM] | GI50 [11] [µM] |
| --- | --- | --- | --- | --- | --- | --- | --- | --- | --- | --- | --- | --- | --- | --- | --- | --- | --- | --- |
| COC(=O)[C@@H]1c2cc3c(c(O)c2[C@@H](OC)C[C@@]1(C)O)C(=O)c1c(O)cc2c(c1C3=O)OC1O[C@@]2(C)[C@H](O)[C@@H](N(C)C)[C@@H]1O | 2.1 | 0.877 | 7.31 | 1.05 | 0.749 | 3.02 | > 150 | 6.48 | 1.21 |  |  |  |  |  |  |  |  |  |
| Nc1nc2c(ncn2CCOC(c2ccccc2)P(=O)(O)O)c(=O)[nH]1 (configuration not stated) | > 100 | > 100 |  | > 100 | > 100 | > 100 |  |  | > 100 | > 100 | > 100 |  |  |  |  |  |  |  |
| O=C1CC(Br)c2c(Cl)sc(Cl)c21 (configuration not stated) | 30.6 |  | 13.7 | 41.9 | 9.79 | 26.6 | 6.45 | 13.8 | 15 | 24.6 | 32.2 |  |  |  |  |  |  |  |
| CC(C)(C)OC(=O)C1=C(C(=O)OC(C)(C)C)SC2(S1)C(C(=O)OC(C)(C)C)=C(C(=O)OC(C)(C)C)Sc1c2ssc1=O | > 100 |  | > 100 | > 100 | > 100 | > 100 | > 100 | > 100 | > 100 | > 100 |  |  |  |  |  |  |  |  |
| OCCSCCCSCCO | > 100 |  | > 100 | > 100 |  | > 100 |  | > 100 | > 100 |  | > 100 |  |  |  |  |  |  |  |
| CN(C)CCNCc1c2ccccc2c(CNCCN(C)C)c2ccccc12 | > 100 | 47 | > 100 | 17.9 |  | > 90.5 | > 100 | 79.8 | 32.5 |  |  |  |  |  |  |  |  |  |
| CC(SC(=S)N1CCCCC1)C(=O)Nc1nnc(-c2ccc(Cl)cc2)o1 (configuration not stated) | 51.6 | > 100 | > 100 | > 100 |  | 81.1 | 51.5 | 76.1 | > 100 | > 100 |  |  |  |  |  |  |  |  |
| CCCCCCOc1ccc(NC2=C(Cl)C(=O)c3cccnc3C2=O)cc1 | 4.08 | 3.58 | > 10 | 2.31 |  | 5.31 | 2.53 | 2.65 | 5.21 | 4.38 |  |  |  |  |  |  |  |  |
| Cc1cc2c(c3oc(C(O)(CO)C4CO4)cc(=O)c13)C(=O)c1c(O)cccc1C2=O (configuration not stated) |  | 0.00209 |  |  | 0.0036 |  |  |  | 0.0404 | 0.00524 | 0.00227 |  |  |  |  |  |  |  |
| NC(=O)c1n[nH]n(-c2ccccc2)c1=O | > 100 | > 100 | > 100 | > 100 | > 100 | > 100 | > 100 | > 100 | > 100 | > 100 |  |  |  |  |  |  |  |  |
| O=C1CN(c2ccc(Cl)cc2)C(=O)CN1CCN1CC(=O)N(c2ccc(Cl)cc2)CC1=O | > 100 |  |  | > 100 | > 100 | > 100 | > 100 | > 100 | > 100 | > 100 | > 100 |  |  |  |  |  |  |  |
| CC(=O)Oc1ccn2nc(C)c(Br)c2c1Br | > 57.8 | > 60.2 | 50.1 | 31.7 | 21.7 | > 90.1 |  | 36.1 | 32.2 | 31.4 | > 100 |  |  |  |  |  |  |  |
| COc1nn(Cc2ccccc2F)c2ccc([N+](=O)[O-])cc12 | > 100 | > 100 | > 100 | > 100 | > 100 | > 100 |  | > 100 | > 100 | > 100 | > 100 |  |  |  |  |  |  |  |
| CC1=C(C2=C(C)C(=O)C(=O)c3cc(C)ccc32)c2ccc(C)cc2C(=O)C1=O | 0.314 | 6.48 |  | 0.374 | 0.328 |  | 0.705 |  | 0.382 | 0.354 |  |  |  |  |  |  |  |  |
| Cn1c(-c2csc(-c3ccc(Cl)cc3)n2)n[nH]c1=S | > 100 | 57.3 | > 100 | > 100 | 56.4 | 81.4 |  | > 100 | > 100 | 34.8 | > 100 |  |  |  |  |  |  |  |
| c1ccc2nc3[nH]c4ccccc4c3cc2c1 | 3.34 | 18.3 | > 100 | 2.01 | 3.69 | 7.3 | 2.53 |  | 2.47 | 12.2 |  |  |  |  |  |  |  |  |
| C=C(C)C1Cc2c(cc(O)c3c(=O)c4ccccc4n(C)c23)O1 (configuration not stated) | > 100 | > 100 |  | > 100 | 56.7 | 73 | > 100 |  | > 100 | > 100 | > 100 |  |  |  |  |  |  |  |
| CCOC(=O)CCC(NC(=O)c1ccc(CNc2nc3cc(N)cc(N)c3nc2-c2ccccc2)cc1)C(=O)OCC (configuration not stated) | > 90.2 | > 100 | > 100 | > 100 | > 100 | > 100 |  | > 100 | 39.1 | > 100 | 23.7 |  |  |  |  |  |  |  |
| O=[N+]([O-])c1ccc(NC2OCC(O)C(O)C2O)cc1 (configuration not stated) | > 100 | > 100 | > 100 | > 100 | > 100 | > 100 | > 100 |  | > 100 | > 100 | > 100 |  |  |  |  |  |  |  |
| O=c1nc2n(cc1/C=C\Br)C1CC(O)C(CO2)O1 (configuration not stated) | > 100 | > 100 | > 100 | > 100 | > 100 | > 100 | > 100 | > 100 | > 100 | > 100 |  |  |  |  |  |  |  |  |
| N#CCCC(CC#N)N1CCN(CCO)CC1 (configuration not stated) | > 100 | > 100 | > 100 | > 100 |  | > 100 | > 100 | > 100 | > 100 | > 100 | > 100 |  |  |  |  |  |  |  |
| CN1CCN(CC(=O)Nc2ccc3ncnc(Nc4ccc(Oc5cccc(C(F)(F)F)c5)c(Cl)c4)c3c2)CC1 | 3.26 |  |  |  | 2.49 | 3.11 |  | 3 | 3.79 | 2.33 | 2.2 | 1.7 | 1.12 | 1.24 | 1.49 | 1.48 | 1.93 | 0.371 |
